Reference: patent publication US20260034123A1 (Cedilla Therapeutics, Inc., priority 2022, published 2026)

Tests used:
CDK2/Cyclin E1 = CDK2/Cyclin E1 (Homo sapiens, UniProt P24941); assay: ADP-Glo Luminescent Kinase Assay (CDK2/E1-37C); type: biochemical; conditions: 0.18 nM CDK2/Cyclin E1, 100 μM ATP, Histone H1, 37° C.; read-out: ADPGLO (CDK2/E1-37C): IC50
Outline: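 IC50 fitted by four-parameter equation from ADP-Glo luminescence converted to % activity. Compounds were preincubated 60 min at 37 °C with enzyme, then kinase reaction ran 90 min at 37 °C with 0.18 nM enzyme, 100 μM ATP, Histone H1 ([…]), pH 7.5 HEPES, Mg2+, DTT.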

Kuramochi cells RB-WT = assay: IncuCyte Kuramochi cell proliferation assay, RB-WT; type: cell-based; conditions: 72 hours, cell count
Outline: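 GI50 was derived by curve-fitting DMSO-normalized fold change in nuclear count between 0 and 72 h. Counts came from images of Kuramochi cells carrying mApple-H2B. Compounds were dosed over 10 points at 1/2-log spacing from a 20 µM top concentration.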

Kuramochi cells RB-KO = assay: IncuCyte Kuramochi cell proliferation assay, RB-KO; type: cell-based; conditions: 72 hours, cell count, batch mean
Protocol: IncuCyte® assay was used to measure the effect of disclosed compounds on cell proliferation. Fluorescent microscopy images of cells were taken immediately after compound treatment and 72 hours later. Image analysis software was used to obtain cell counts as a function of compound concentration. Kuramochi cells labeled with mApple-H2B were seeded on 384-well assay-ready plates. Plates were placed in an IncuCyte® (Sartorius) and scanned at 0 and 72 hours. IncuCyte® software was used to count the number of fluorescent nuclei in each well. The fold change in cell count from 0 to 72 hours in wells treated with increasing compounds concentrations (10 pts, 1/2 log dilution, 20 µM top concentration) was normalized to DMSO control wells. The normalized cell counts were fit with dose response curves and a GI50 was calculated.

Row | SMILES | IC50 (CDK2/Cyclin E1) [µM] | IC50 (Kuramochi cells RB-WT) [µM] | IC50 (Kuramochi cells RB-KO) [µM]
1 | CC(C)(C(=O)N1CC2(CN(C(=O)c3cnn(Cc4ccc(F)cc4)c3)C[C@H]2COCc2cccc(N3CCC(C(F)(F)F)CC3)c2C(=O)O)C1)C(F)(F)F [I′-19, (S)-2-(((6-(1-(4-fluorobenzyl)-1H-pyrazole-4-carbonyl)-2-(3,3,3-trifluoro-2,2-dimethylpropanoyl)-2,6-diazaspiro[3.4]octan-8-yl)methoxy)methyl)-6-(4-(trifluoromethyl)piperidin-1-yl)benzoic acid] | ≤ 0.5 | 0.5 to 5 | > 10
2 | CC(C)(C(=O)N1CC2(CN(C(=O)c3cnn(Cc4ccc(F)cc4)c3)C[C@H]2COCc2c(C(F)(F)F)ccc(C3CCC(F)(F)CC3)c2C(=O)O)C1)C(F)(F)F [I′-20] | ≤ 0.5 | 5 to 10 | > 10
3 | CC(C)(C(=O)N1CC2(CN(C(=O)c3cnn(Cc4ccc(F)cc4)c3)C[C@H]2COCc2ccc(F)c(C3CCC(F)(F)CC3)c2C(=O)O)C1)C(F)(F)F [I′-21] | ≤ 0.5 | > 10 | > 10
4 | CC(C)(C(=O)N1CC2(CN(C(=O)c3cnn(Cc4ccc(F)cc4)c3)C[C@H]2COCc2cccc(C3CCC(F)(F)CC3)c2C(=O)NCCN2CCOCC2)C1)C(F)(F)F [I′-22] | ≤ 0.5 | > 10 | > 10
5 | CC(C)(C(=O)N1CC2(CN(C(=O)c3cnn(Cc4ccc(F)cc4)c3)C[C@H]2COCc2cccc(C3CCC(C(F)(F)F)CC3)c2CC(=O)O)C1)C(F)(F)F (stereo partly drawn) [I′-23, (S)-2-(2-(((6-(1-(4-fluorobenzyl)-1H-pyrazole-4-carbonyl)-2-(3,3,3-trifluoro-2,2-dimethylpropanoyl)-2,6-diazaspiro[3.4]octan-8-yl)methoxy)methyl)-6-(4-(trifluoromethyl)cyclohexyl)phenyl)acetic acid] | ≤ 0.5 | ≤ 0.5 | > 10
6 | CC(C)(C(=O)N1CC2(CN(C(=O)c3cnn(Cc4ccc(F)cc4)c3)C[C@H]2COCc2cccc(C3CCC(F)(F)CC3)c2-c2nn[nH]n2)C1)C(F)(F)F [I′-24] | ≤ 0.5 | 0.5 to 5 | > 10
7 | CC1(C)C[C@@H]1C(=O)N1CC2(CN(C(=O)c3cnn(Cc4ccc(F)cc4)c3)C[C@H]2COCc2cccc(C3CCC(F)(F)CC3)c2C(=O)NCCN2CCOCC2)C1 [I′-25, 2-(4,4-difluorocyclohexyl)-6-((((S)-2-((S)-2,2-dimethylcyclopropane-1-carbonyl)-6-(1-(4-fluorobenzyl)-1H-pyrazole-4-carbonyl)-2,6-diazaspiro[3.4]octan-8-yl)methoxy)methyl)-N-(2-morpholinoethyl)benzamide] | ≤ 0.5 | > 10 | > 10
8 | CC(C)(C(=O)N1CC2(CN(C(=O)c3cnn(Cc4ccc(F)cc4)c3)C[C@H]2COCc2cccc(-c3csc(C(F)(F)F)c3)c2C(=O)O)C1)C(F)(F)F [I′-26, (S)-2-(((6-(1-(4-fluorobenzyl)-1H-pyrazole-4-carbonyl)-2-(3,3,3-trifluoro-2,2-dimethylpropanoyl)-2,6-diazaspiro[3.4]octan-8-yl)methoxy)methyl)-6-(5-(trifluoromethyl)thiophen-3-yl)benzoic acid] | ≤ 0.5 | ≤ 0.5 | > 10
9 | CC(C)(C(=O)N1CC2(CN(C(=O)c3cnn(Cc4ccc(F)cc4)c3)C[C@H]2COCc2cccc(-c3cccc(C(F)(F)F)c3)c2C(=O)O)C1)C(F)(F)F [I′-27, (S)-3-(((6-(1-(4-fluorobenzyl)-1H-pyrazole-4-carbonyl)-2-(3,3,3-trifluoro-2,2-dimethylpropanoyl)-2,6-diazaspiro[3.4]octan-8-yl)methoxy)methyl)-3′-(trifluoromethyl)-[1,1′-biphenyl]-2-carboxylic acid] | ≤ 0.5 | 5 to 10 | > 10
10 | CC(C)(C(=O)N1CC2(CN(C(=O)c3cnn(Cc4ccc(F)cc4)c3)C[C@H]2COCc2cccc(-c3cccc(F)c3)c2C(=O)O)C1)C(F)(F)F [I′-28] | ≤ 0.5 | 5 to 10 | > 10
11 | O=C(O)c1c(CCC2CN(C(=O)c3cnn(Cc4ccc(F)cc4)c3)CC23CN(C(=O)C2(C(F)(F)F)CC2)C3)cccc1C1CCC(F)(F)CC1 (stereo not drawn) [I′-29] | ≤ 0.5 | > 10 | > 10
12 | CC(C)(C(=O)N1CC2(CN(C(=O)c3cnn(Cc4ccc(F)cc4)c3)C[C@H]2COCc2cccc(C3CCC(F)(F)CC3)c2C(=O)OCCN2CCOCC2)C1)C(F)(F)F [I′-31] | ≤ 0.5 | 0.5 to 5 | 5 to 10
13 | O=C(O)c1c(OCCC2CN(C(=O)c3cnn(Cc4ccc(F)cc4)c3)CC23CN(C(=O)C2(C(F)(F)F)CC2)C3)cccc1C1CCC(F)(F)CC1 (stereo not drawn) [I′-32, 2-(4,4-difluorocyclohexyl)-6-(2-(6-(1-(4-fluorobenzyl)-1H-pyrazole-4-carbonyl)-2-(1-(trifluoromethyl)cyclopropane-1-carbonyl)-2,6-diazaspiro[3.4]octan-8-yl)ethoxy)benzoic acid] | ≤ 0.5 | ≤ 0.5 | 5 to 10
14 | NC(=O)c1c(COC[C@@H]2CN(c3cc(F)c(F)c4ncsc34)CC23CN(C(=O)C2(C(F)(F)F)CC2)C3)cccc1C1CCC(F)(F)CC1 [I′-33, 2-(((6-(4,5-difluorobenzo[d]thiazol-7-yl)-2-(1-(trifluoromethyl)cyclopropane-1-carbonyl)-2,6-diazaspiro[3.4]octan-8-yl)methoxy)methyl)-6-(4,4-difluorocyclohexyl)benzamide] | ≤ 0.5 | > 10 | > 10
15 | O=C(O)c1c(COC[C@@H]2CN(c3cc(F)c(F)c4ncsc34)CC23CN(C(=O)C2(C(F)(F)F)CC2)C3)cccc1C1CCC(C(F)(F)F)CC1 (stereo partly drawn) [I′-34, (S)-2-(((6-(4,5-difluorobenzo[d]thiazol-7-yl)-2-(1-(trifluoromethyl)cyclopropane-1-carbonyl)-2,6-diazaspiro[3.4]octan-8-yl)methoxy)methyl)-6-(4-(trifluoromethyl)cyclohexyl)benzoicacid] | ≤ 0.5 | ≤ 0.5 | > 10
16 | CC(C)(C(=O)N1CC2(CN(C(=O)c3cnn(Cc4ccc(F)cc4)c3)C[C@H]2COCc2cccc(C3CCC(F)(F)CC3)c2C#N)C1)C(F)(F)F [I′-35] | ≤ 0.5 | 0.5 to 5 | > 10
17 | CC1(C)C[C@@H]1C(=O)N1CC2(CN(C(=O)c3cnn(Cc4ccc(F)cc4)c3)C[C@H]2COCc2cccc(C3CCC(F)(F)CC3)c2C(=O)OCCN2CCOCC2)C1 [I′-36, 2-morpholinoethyl 2-(4,4-difluorocyclohexyl)-6-((((S)-2-((S)-2,2-dimethylcyclopropane-1-carbonyl)-6-(1-(4-fluorobenzyl)-1H-pyrazole-4-carbonyl)-2,6-diazaspiro[3.4]octan-8-yl)methoxy)methyl)benzoate] | ≤ 0.5 | ≤ 0.5 | 0.5 to 5
18 | CC(C)(C(=O)N1CC2(CN(C(=O)c3cnn(Cc4ccc(F)cc4)c3)C[C@H]2COCc2cccc(C3=CCC(F)(F)CC3)c2C(=O)O)C1)C(F)(F)F [I′-37] | ≤ 0.5 | ≤ 0.5 | > 10
19 | CC(C)(C(=O)N1CC2(CN(C(=O)c3cnn(Cc4ccc(F)cc4)c3)C[C@H]2COCc2cccc(-c3ccc(F)cc3)c2C(=O)O)C1)C(F)(F)F [I′-38] | ≤ 0.5 | 5 to 10 | > 10
20 | CC(C)(C(=O)N1CC2(CN(C(=O)c3cnn(Cc4ccc(F)cc4)c3)C[C@H]2COCc2cccc(-c3ccccc3)c2)C1)C(F)(F)F [I′-39] | 0.5 to 5 | > 10 | > 10
21 | CC(C)(C(=O)N1CC2(CN(C(=O)c3cnn(Cc4ccc(F)cc4)c3)C[C@H]2COCc2cccc(-c3ccccc3C(=O)O)c2)C1)C(F)(F)F [I′-40] | 0.5 to 5 | 0.5 to 5 | 5 to 10
22 | Cc1cc(N2C[C@@H](COCc3cccc(C4CCC(F)(F)CC4)c3C(=O)O)C3(CN(C(=O)C4(C(F)(F)F)CC4)C3)C2)c2scnc2c1C [I′-41] | > 10 | 5 to 10 | > 10
23 | CC1(C)C[C@@H]1C(=O)N1CC2(CN(C(=O)c3cnn(Cc4ccc(F)cc4)c3)C[C@H]2COCc2cccc(C3CCC(F)(F)CC3)c2C#N)C1 [I′-42, 2-(4,4-difluorocyclohexyl)-6-((((S)-2-((S)-2,2-dimethylcyclopropane-1-carbonyl)-6-(1-(4-fluorobenzyl)-1H-pyrazole-4-carbonyl)-2,6-diazaspiro[3.4]octan-8-yl)methoxy)methyl)benzonitrile] | ≤ 0.5 | 0.5 to 5 | 0.5 to 5
24 | CC1(C)C[C@@H]1C(=O)N1CC2(CN(C(=O)c3cnn(Cc4ccc(F)cc4)c3)C[C@H]2COCc2cccc(C3CCC(F)(F)CC3)c2-c2nn[nH]n2)C1 [I′-43, ((S)-8-(((3-(4,4-difluorocyclohexyl)-2-(2H-tetrazol-5-yl)benzyl)oxy)methyl)-2-((S)-2,2-dimethylcyclopropane-1-carbonyl)-2,6-diazaspiro[3.4]octan-6-yl)(1-(4-fluorobenzyl)-1H-pyrazol-4-yl)methanone] | ≤ 0.5 | ≤ 0.5 | 5 to 10
